Reference: ChEMBL document CHEMBL4385670, “Potent HIV-1 protease inhibitors incorporating squaramide-derived P2 ligands: Design, synthesis, and biological evaluation” (Bioorg Med Chem Lett, 2019)
pIC50, pKi: −log10 of the molar value.

What was measured:
[1] = molecular target: Protease (Human immunodeficiency virus 1, UniProt Q9YQ12); experiment: Inhibition of HIV1 protease using Ac-Thr-Ile-Nle-Nle-Gln-Arg-NH2 substrate by continuous fluorometric assay
[2] = test system: Human immunodeficiency virus 1; experiment: Antiviral activity against HIV1 NL4-3 infected in human MT4 cells assessed as reduction in p24 Gag protein production incubated for 6 days and measured on day 7 by chemiluminescent enzyme immunoassay; assay type: functional, organism-based; conditions: Human immunodeficiency virus 1, NL4-3, MT4

Protease, sequence (Q9YQ12 whole entry): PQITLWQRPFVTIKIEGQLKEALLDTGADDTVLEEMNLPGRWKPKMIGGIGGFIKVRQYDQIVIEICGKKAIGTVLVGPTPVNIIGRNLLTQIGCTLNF

Structure (SMILES)	pKi [1]	pIC50 [2]
COc1ccc(S(=O)(=O)N(CC(C)C)C[C@@H](O)[C@H](Cc2ccccc2)Nc2c(N[C@H]3CO[C@H]4OCC[C@H]43)c(=O)c2=O)cc1	7.26	< 6.00
CCOc1c(N[C@@H](Cc2ccccc2)[C@H](O)CN(CC(C)C)S(=O)(=O)c2ccc(OC)cc2)c(=O)c1=O	6.33	< 6.00
COc1ccc(S(=O)(=O)N(CC(C)C)C[C@@H](O)[C@H](Cc2ccccc2)Nc2c(N[C@@H]3CCOC3)c(=O)c2=O)cc1	6.70	< 6.00
COc1ccc(S(=O)(=O)N(CC(C)C)C[C@@H](O)[C@H](Cc2ccccc2)Nc2c(N[C@@H]3CO[C@@H]4OCC[C@@H]43)c(=O)c2=O)cc1	8.25	< 6.00
COc1ccc(S(=O)(=O)N(CC(C)C)C[C@@H](O)[C@H](Cc2ccccc2)Nc2c(N(C)[C@H]3CO[C@H]4OCC[C@H]43)c(=O)c2=O)cc1	8.35	< 6.00
COc1ccc(S(=O)(=O)N(CC(C)C)C[C@@H](O)[C@H](Cc2ccccc2)Nc2c(O[C@H]3CCOC3)c(=O)c2=O)cc1	7.51	< 6.00
COc1ccc(S(=O)(=O)N(CC(C)C)C[C@@H](O)[C@H](Cc2ccccc2)Nc2c(N(C)[C@H]3CCOC3)c(=O)c2=O)cc1	6.40	< 6.00
COc1ccc(S(=O)(=O)N(CC(C)C)C[C@@H](O)[C@H](Cc2ccccc2)Nc2c(N(C)[C@@H]3CCOC3)c(=O)c2=O)cc1	9.29	< 6.00
COc1ccc(S(=O)(=O)N(CC(C)C)C[C@@H](O)[C@H](Cc2ccccc2)Nc2c(N(C)[C@@H]3CO[C@@H]4OCC[C@@H]43)c(=O)c2=O)cc1	6.70	< 6.00
COCCOc1c(N[C@@H](Cc2ccccc2)[C@H](O)CN(CC(C)C)S(=O)(=O)c2ccc(OC)cc2)c(=O)c1=O	5.71	< 6.00
COc1ccc(S(=O)(=O)N(CC(C)C)C[C@@H](O)[C@H](Cc2ccccc2)Nc2c(O[C@@H]3CCOC3)c(=O)c2=O)cc1	6.65	< 6.00
COc1ccc(S(=O)(=O)N(CC(C)C)C[C@@H](O)[C@H](Cc2ccccc2)Nc2c(N[C@H]3CCOC3)c(=O)c2=O)cc1	5.21	< 6.00
